Source: US9635855B2, “Polyelectrolyte complexes for biocide enhancement” (priority 2012, dated 2017)

Test system: Botrytis cinerea
Experiment: Botrytis cinerea fruit rot on wounded apple, post-harvest spray (Example 2)
Type: in vivo

## C[C@@H]1C/C=C/C=C/C=C/C=C/[C@H](O[C@@H]2O[C@H](C)[C@@H](O)[C@H](N)[C@@H]2O)C[C@@H]2O[C@](O)(C[C@@H](O)C[C@H]3O[C@@H]3/C=C/C(=O)O1)C[C@H](O)[C@H]2C(=O)O [natamycin]
Five and six days after inoculation
  Rot on apples, comparison in words: clearly lower
Two days after inoculation
  Botrytis fruit rot symptoms (in words): did not show any symptoms
